Measurements published in ChEMBL document CHEMBL1132510, “[35S]S-[5-(4-benzoylphenyl)pentyl]glutathione: a versatile radioligand targeting GS-X pumps with the ability of photoaffinity labeling” (Bioorg Med Chem Lett, 1999).

Legend:
HL-60 [1] = test: Inhibitory activity against MRP1/GS-X pump mediated transport of delta7-PGA1 methyl ester glutathione conjugate in the cisplatin-resistant human leukemia HL-60 (HL-60/R-CP) cells; type: functional, cell-based
HL-60 [2] = test: Compound was evaluated for the competitive inhibition of the MRP1/GS-X pump mediated transport of LTC4 in the cisplatin-resistant human leukemia HL-60 (HL-60/R-CP) cells; type: functional, cell-based

## N[C@@H](CCC(=O)N[C@@H](CSCCCCCc1ccc(C(=O)c2ccccc2)cc1)C(=O)NCC(=O)O)C(=O)O
HL-60 [1]
  IC50: 520 nM
HL-60 [2]
  IC50: 400 nM
